# Laboratory results taken from patent US7932262B2 (Novartis AG, priority 2006, dated 2011).
# Like-named read-outs stand apart in the source and are kept apart here.
# How the values were obtained:
# PDK1 kinase = molecular target: T1, PDK1 kinase (Homo sapiens, UniProt O15530); assay: PDK1 Kinase Alpha Screen Assay; assay type: biochemical
# T1 sequence (O15530 1-556): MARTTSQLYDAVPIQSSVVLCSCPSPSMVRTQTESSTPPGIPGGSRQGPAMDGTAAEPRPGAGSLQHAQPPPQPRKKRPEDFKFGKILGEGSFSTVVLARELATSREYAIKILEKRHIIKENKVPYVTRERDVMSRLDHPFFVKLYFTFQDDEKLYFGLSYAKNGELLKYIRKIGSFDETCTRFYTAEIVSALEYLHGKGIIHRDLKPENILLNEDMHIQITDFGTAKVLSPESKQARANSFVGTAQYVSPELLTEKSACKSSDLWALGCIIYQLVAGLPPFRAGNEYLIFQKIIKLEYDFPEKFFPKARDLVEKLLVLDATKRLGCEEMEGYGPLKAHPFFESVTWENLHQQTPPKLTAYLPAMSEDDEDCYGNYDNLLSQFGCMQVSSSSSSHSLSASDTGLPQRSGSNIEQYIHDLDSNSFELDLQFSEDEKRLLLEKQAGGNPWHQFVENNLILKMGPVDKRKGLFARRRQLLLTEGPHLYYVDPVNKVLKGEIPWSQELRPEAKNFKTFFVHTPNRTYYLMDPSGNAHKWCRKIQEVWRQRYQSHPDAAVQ
# Method in brief: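 Detection used AlphaScreen: streptavidin donor and protein A acceptor beads (25 μg/ml each) bridged by a phospho-(Ser/Thr) PKA substrate antibody binding phosphorylated peptide. Reaction: biotin-PDK1-4 peptide (50 nM), ATP (10 uM), PDK1 in pH 7.5 Tris/MgCl2/DTT buffer, 3-18 hours, EDTA-stopped.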
# PC-3 cells = assay: Cell Proliferation Assay (Cell Titer Glo), PC-3 cell line; assay type: cell-based; conditions: Homo sapiens, read-out: CPEC50 PC3
# Method in brief: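 Cell Titer Glo luminescence, read after fresh medium replaced the dosing medium, gave viability of PC-3 cells plated at 1000 cells/well. Compounds, 1:3 serially diluted in DMSO at 500× and then in medium, were added after 3-5 h adhesion and incubated 3 days at 37° C.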
# [1] = PDK1 Kinase Alpha Screen Assay, read-out: PDK1 IC50
# [2] = PC-3, Cell Proliferation Assay, PC3
Compound,IC50 (PDK1 kinase; read-out: PDK1 IC50),"EC50 (PC-3 cells; PC-3, PC3 cells)",IC50 (PDK1 kinase; [1]),EC50 (PC-3 cells; [2]),"IC50 (PDK1 kinase; head of the second part of Table 4: BV11261, read-out: PDK1 BV11261)"
"CNS(=O)(=O)Cc1ccc(Nc2ncc3cccc(-c4ccc(NCCN5CCCC5)nc4)c3n2)cc1 [Compound 998, N-methyl-1-(4-(8-(6-(2-(pyrrolidin-1-yl)ethylamino)pyridin-3-yl)quinazolin-2-ylamino)phenyl)methanesulfonamide]",< 5 µM,< 5 µM,,,
"CN1CCN(Cc2cncc(-c3cccc4cnc(Nc5ccc(S(N)(=O)=O)cc5)nc34)c2)CC1 [Compound 943, 4-(8-(5-((4-methylpiperazin-1-yl)methyl)pyridin-3-yl)quinazolin-2-ylamino)benzenesulfonamide]",< 5 µM,< 5 µM,,,
"NS(=O)(=O)c1ccc(Nc2ncc3cccc(Oc4ccc(F)nc4)c3n2)cc1 [Compound 413, 4-(8-(6-fluoropyridin-3-yloxy)quinazolin-2-ylamino)benzenesulfonamide]",,,< 5 µM,< 5 µM,
"CC(C)NCCCNc1ccc(-c2cccc3cnc(Nc4ccc(S(N)(=O)=O)cc4)nc23)cn1 [Compound 971, 4-(8-(6-(3-(isopropylamino)propylamino)pyridin-3-yl)quinazolin-2-ylamino)benzenesulfonamide]",< 5 µM,< 5 µM,,,
"Fc1cc(Nc2ncc3cccc(OC4CCNCC4)c3n2)ccc1N1CCOCC1 [Compound 457, N-(3-fluoro-4-morpholinophenyl)-8-(piperidin-4-yloxy)quinazolin-2-amine]",,,< 5 µM,< 5 µM,
"O=C(c1ccc(Nc2ncc3cccc(OC4CCNCC4)c3n2)cc1F)N1CCCC1 [Compound 477, (2-fluoro-4-(8-(piperidin-4-yloxy)quinazolin-2-ylamino)phenyl)(pyrrolidin-1-yl)methanone]",,,< 5 µM,< 5 µM,
"CC(C)NC(=O)c1ccc(Nc2ncc3c(Cl)ccc(OC4CNC4)c3n2)cc1 [Compound 612, 4-(8-(azetidin-3-yloxy)-5-chloroquinazolin-2-ylamino)-N-isopropylbenzamide]",,,< 5 µM,5 to 10 µM,
"CC(C)NC(=O)c1ccc(Nc2ncc3c(Cl)ccc(OC4CCNCC4)c3n2)cc1F [Compound 379, 4-(5-chloro-8-(piperidin-4-yloxy)quinazolin-2-ylamino)-2-fluoro-N-isopropylbenzamide]",,,< 5 µM,< 5 µM,
"O=S(=O)(c1ccc(Nc2ncc3ccc(OC4CCN(CCF)CC4)cc3n2)cc1)N1CCOCC1 [Compound 333, 7-(1-(2-fluoroethyl)piperidine-4-yloxy)-N-(4-(morpholinosulfonyl)phenyl)quinazolin-2-amine]",,,< 5 µM,< 5 µM,
"CN(C)C(=O)c1cc(Nc2ncc3cccc(OC4CCNCC4)c3n2)ccc1F [Compound 473, 2-fluoro-N,N-dimethyl-5-(8-(piperidin-4-yloxy)quinazolin-2-ylamino)benzamide]",,,< 5 µM,< 5 µM,
"Fc1ccc(Nc2ncc3c(Br)ccc(OC4CCNCC4)c3n2)cc1 [Compound 434, 5-bromo-N-(4-fluorophenyl)-8-(piperidin-4-yloxy)quinazolin-2-amine]",,,< 5 µM,< 5 µM,
Fc1ccc(Nc2ncc3cccc(OC4CCNCC4)c3n2)cc1 [Compound 335],,,< 5 µM,< 5 µM,
"CN(Cc1cncc(-c2cccc3cnc(Nc4ccc(S(N)(=O)=O)cc4)nc23)c1)C1CCOCC1 [Compound 950, 4-(8-(5-((methyl(tetrahydro-2H-pyran-4-yl)amino)methyl)pyridin-3-yl)quinazolin-2-ylamino)benzenesulfonamide]",< 5 µM,< 5 µM,,,
"c1csc(-c2cc(OC3CNC3)c3nc(Nc4ccc(N5CCOCC5)cc4)ncc3c2)n1 [Compound 706, 8-(azetidin-3-yloxy)-N-(4-morpholinophenyl)-6-(thiazol-2-yl)quinazolin-2-amine]",,,< 5 µM,< 5 µM,
"OCCc1ccc(Nc2ncc3cccc(-c4ccc(NCCN5CCCC5)nc4)c3n2)cc1 [Compound 1019, 2-(4-(8-(6-(2-(pyrrolidin-1-yl)elhylamino)pyridin-3-yl)quinazolin-2-ylamino)phenyl)ethanol]",< 5 µM,< 5 µM,,,
"Clc1ccc(OC2CCNCC2)c2nc(Nc3cccc(N4CCOCC4)c3)ncc12 [Compound 601, 5-chloro-N-(3-morpholinophenyl)-8-(piperidin-4-yloxy)quinazolin-2-amine]",,,< 5 µM,5 to 10 µM,

Compound,IC50 (PDK1 kinase; read-out: PDK1 IC50),"EC50 (PC-3 cells; PC-3, PC3 cells)",IC50 (PDK1 kinase; [1]),EC50 (PC-3 cells; [2]),"IC50 (PDK1 kinase; head of the second part of Table 4: BV11261, read-out: PDK1 BV11261)"
"O=C(NC1CC1)c1ccc(Nc2ncc3c(Cl)ccc(OC4CCNCC4)c3n2)cc1 [Compound 604, 4-(5-chloro-8-(piperidin-4-yloxy)quinazolin-2-ylamino)-N-cyclopropylbenzamide]",,,< 5 µM,< 5 µM,
"O=C(c1ccc(Nc2ncc3cccc(OC4CCNCC4)c3n2)cc1Cl)N1CCOCC1 [Compound 483, (2-chloro-4-(8-(piperidin-4-yloxy)quinazolin-2-ylamino)phenyl)(morpholino)methanone]",,,< 5 µM,< 5 µM,
"NS(=O)(=O)c1ccc(Nc2ncc3cccc(-c4cncc(C(=O)O)c4)c3n2)cc1 [Compound 962, 5-(2-(4-sulfamoylphenylamino)quinazolin-8-yl)nicotinic acid]",5 to 10 µM,5 to 10 µM,,,
"O=C1CN(C(=O)c2ccc(Nc3ncc4cccc(OC5CCNCC5)c4n3)cc2F)CCN1 [Compound 494, 4-(2-fluoro-4-(8-(piperidin-4-yloxy)quinazolin-2-ylamino)benzoyl)piperazin-2-one]",,,< 5 µM,5 to 10 µM,
"Cc1cc(Nc2ncc3ccc(OC4CCN(C(C)C)CC4)cc3n2)ccc1F [Compound 327, N-(4-fluoro-3-methylphenyl)-7-(1-isopropyl-piperidin-4-yloxy)-quinazolin-2-amine]",,,< 5 µM,5 to 10 µM,
"O=C(O)c1ccc(Nc2ncc3cccc(OC4CCNCC4)c3n2)cc1 [Compound 488, 4-(8-(piperidin-4-yloxy)quinazolin-2-ylamino)benzoic acid]",,,< 5 µM,< 5 µM,
"Cn1cnnc1-c1cccc(Nc2ncc3cccc(-c4ccc(NCCN5CCCC5)nc4)c3n2)c1 [Compound 1021, N-(3-(4-methyl-4H-1,2,4-triazol-3-yl)phenyl)-8-(6-(2-(pyrrolidin-1-yl)ethylamino)pyridin-3-yl)quinazolin-2-amine]",< 5 µM,< 5 µM,,,
"C#Cc1cc(-c2ccc(NCCN3CCCC3)nc2)c2nc(Nc3ccc(S(N)(=O)=O)cc3)ncc2c1 [Compound 634, 4-(6-ethynyl-8-(6-(2-(pyrrolidin-1-yl)ethylamino)pyridin-3-yl)quinazolin-2-ylamino)benzenesulfonamide]",,,< 5 µM,< 5 µM,
"COc1ccc(Oc2cccc3cnc(Nc4ccc(S(N)(=O)=O)cc4)nc23)cn1 [Compound 410, 4-(8-(6-methoxypyridin-3-yloxy)quinazolin-2-ylamino)benzenesulfonamide]",,,< 5 µM,< 5 µM,
"CC(C)NS(=O)(=O)c1ccc(Nc2ncc3c(Cl)ccc(OC4CCNCC4)c3n2)cc1 [Compound 603, 4-(5-chloro-8-(piperidin-4-yloxy)quinazolin-2-ylamino)-N-isopropylbenzenesulfonamide]",,,< 5 µM,< 5 µM,
"c1cc(Nc2ncc3cccc(OC4CCNCC4)c3n2)cc(N2CCCC2)c1 [Compound 550, 8-(piperidin-4-yloxy)-N-(3-(pyrrolidin-1-yl)phenyl)quinazolin-2-amine]",,,< 5 µM,5 to 10 µM,
"CC(C)NC(=O)c1ccc(Nc2ncc3ccc(-c4ccc5c(c4)CCNC5=O)cc3n2)cc1 [Compound 1040, N-isopropyl-4-(7-(1-oxo-1,2,3,4-tetrahydroisoquinolin-6-yl)quinazolin-2-ylamino)benzamide]",,5 to 10 µM,,,< 5 µM
"O=C(c1ccc(Nc2ncc3c(C(F)(F)F)ccc(OC4CCNCC4)c3n2)cc1)N1CCOCC1 [Compound 501, morpholino(4-(8-(piperidin-4-yloxy)-5-(trifluoromethyl)quinazolin-2-ylamino)phenyl)methanone]",,,< 5 µM,5 to 10 µM,
"Cc1ccc(OC2CCNCC2)c2nc(Nc3ccc(N4CCOCC4)c(F)c3)ncc12 [Compound 366, N-(3-fluoro-4-morpholinophenyl)-5-methyl-8-(piperidin-4-yloxy)quinazolin-2-amine]",,,< 5 µM,5 to 10 µM,
"FC(F)(F)c1cccc(Nc2ncc3ccc(OC4CCNCC4)cc3n2)c1 [Compound 569, 7-(piperidin-4-yloxy)-N-(3-(trifluoromethyl)phenyl)quinazolin-2-amine]",,,< 5 µM,< 5 µM,
"CC(C)NS(=O)(=O)c1ccc(Nc2ncc3ccc(NC4CCN(C)CC4)cc3n2)cc1 [Compound 350, N-isopropyl-4-(7-(1-methylpiperidin-4-ylamino)quinazolin-2-ylamino)benzenesulfonamide]",,,< 5 µM,< 5 µM,
